Measured values reported in BigSolDB 2.1.

NC(=O)N1c2ccccc2CC(=O)c2ccccc21
solubility (mole fraction)
Conditions	in DMAc	in DMF	in DMSO	in NMP	in transcutol	in water
288.15 K	0.0256	0.0202	0.0312	0.0346	0.00418	5.42e-06
293.15 K	0.0189	0.0212	0.0339	0.0358	0.00437	5.85e-06
298.15 K	0.0205	0.0174	0.0367	0.0369	0.00456	6.3e-06
303.15 K	0.0222	0.0183	0.0259	0.038	0.00475	6.74e-06
308.15 K	0.0239	0.0193	0.0285	0.0335	0.00495	7.2e-06
